Active and inactive are the calls of the source. The calls are words filed in the database; no cut-off is given here. Peptide text beside a SMILES is read from it.
Experiments:
Huh-7 [1] = assay: Antiproliferative activity against human Huh-7 cells under dark condition by CCK8 assay; format: functional, cell-based
MCF7 [2] = assay: Antiproliferative activity against human MCF7 cells under 10 J/cm2 light irradiation at 660 nm by CCK8 assay; format: functional, cell-based; conditions: MCF7, light or radiation study
HeLa = assay: Antiproliferative activity against human HeLa cells under dark condition by CCK8 assay; format: functional, cell-based
[3] = Antiproliferative activity against human HUVEC cells under 10 J/cm2 light irradiation at 660 nm by CCK8 assay; format: toxicity, cell-based
chymotrypsin = chymotrypsin (Homo sapiens, UniProt P17538+P40313+Q6GPI1+Q99895); assay: Stability of compound assessed as chymotrypsin (unknown origin)-mediated compound degradation in PBS at pH 7.4 by measuring half life; format: ADME, protein assay
[4] = Drug uptake in human MCF7 cells incubated for 2 hrs by fluorescence based assay; format: ADME, cell-based; conditions: mcf7, 2 h
[5] = Drug uptake in human HepG2 cells at 500 nM incubated for 2 hrs by flow cytometry; format: ADME, cell-based; conditions: hepg2, 2 h, 0.5 µM
[6] = Drug uptake in human MCF7 cells at 10 uM incubated for 4 hrs by confocal microscopy; format: ADME, cell-based; conditions: mcf7, 4 h
[7] = Drug uptake in human HepG2 cells at 10 uM by confocal microscopy; format: ADME, cell-based; conditions: hepg2, 10 µM, TDE = time-dependent effect, time 4-24 hrs
[8] = Drug uptake in endoplasmic reticulum of human HepG2 cells assessed as pearsons co-efficient of ER tracker green-yellow signal at 2 uM incubated for 24 hrs by laser confocal microscopy; format: ADME, subcellular; conditions: hepg2, 24 h
HepG2 [9] = assay: Induction of ROS generation in human HepG2 cells at 10 uM incubated for 24 hrs by DCFH-DA probe based flow cytometry; format: functional, cell-based
HepG2 [10] = assay: Induction of ROS generation in human HepG2 cells at 10 uM preincubated for 24 hrs followed by DCFH-DA probe addition and further incubated under dark condition for 20 mins prior and 20 mins post- light irradiation of 10 J/cm2 at 660 nm by flow cytometry; format: functional, cell-based; conditions: time 24.66 hrs
HepG2 [11] = assay: Induction of apoptosis in human HepG2 cells assessed as early apoptotic cells under dark condition at 2.5 uM incubated for 24 hrs by Annexin V-FITC/PI staining based flow cytometry relative to control; format: functional
HepG2 [12] = assay: Induction of apoptosis in human HepG2 cells assessed as late apoptotic cells under dark condition at 2.5 uM incubated for 24 hrs by Annexin V-FITC/PI staining based flow cytometry relative to control; format: functional
HepG2 [13] = assay: Induction of apoptosis in human HepG2 cells assessed as necrotic cells under dark condition at 2.5 uM incubated for 24 hrs by Annexin V-FITC/PI staining based flow cytometry relative to control; format: functional
HepG2 [14] = assay: Induction of apoptosis in human HepG2 cells assessed as early apoptotic cells at 5 uM incubated for 24 hrs followed by 10 J/cm2 of light irradiation at 660 nm measured after 24 hrs by Annexin V-FITC/PI staining based flow cytometry relative to control; format: functional; conditions: time 48 hrs
HepG2 [15] = assay: Induction of apoptosis in human HepG2 cells assessed as late apoptotic cells at 5 uM incubated for 24 hrs followed by 10 J/cm2 of light irradiation at 660 nm measured after 24 hrs by Annexin V-FITC/PI staining based flow cytometry relative to control; format: functional; conditions: time 48 hrs
HepG2 [16] = assay: Induction of cell cycle arrest at S phase in human HepG2 cells at 1 uM by flow cytometry relative to control; format: functional
Huh-7 [17] = assay: Induction of cell cycle arrest at S phase in human Huh-7 cells at 1 uM under 10 J/cm2 light irradiation at 660 nm by flow cytometry; format: functional, cell-based
[18] = Drug distribution in heart of BALB/C nude mouse model xenografted with human HepG2 cells at 1 to 2 uM/kg, iv measured for 1 to 4 hrs by fluorescence imaging analysis; format: ADME, organism-based; conditions: in vivo, dose lower 1 µM/Kg, time lower 1 hrs, dose upper 2 µM/Kg, time upper 4 hrs
[19] = Drug distribution in spleen of BALB/C nude mouse model xenografted with human HepG2 cells at 1 to 2 uM/kg, iv measured for 1 to 4 hrs by fluorescence imaging analysis; format: ADME, organism-based; conditions: in vivo, dose lower 1 µM/Kg, time lower 1 hrs, dose upper 2 µM/Kg, time upper 4 hrs
[20] = Drug distribution in BALB/C nude mouse model xenografted with human HepG2 cells at 1 to 2 uM/kg, iv measured after 1 hr by fluorescence imaging analysis; format: ADME, organism-based; conditions: in vivo, dose 1-2 µM/Kg
[21] = Drug distribution in tumor of BALB/C nude mouse model xenografted with human HepG2 cells at 1 uM/kg, iv measured after 2 hrs by fluorescence spectrophotometry; format: ADME, organism-based, Neoplasm; conditions: in vivo
[22] = Drug distribution in tumor of BALB/C nude mouse model xenografted with human Huh-7 cells administered intravenously measured after 2 hrs by fluorescence spectrophotometry; format: ADME, tissue-based, Neoplasm; conditions: in vivo, iv, dose 1-2 µM/Kg
[23] = Toxicity in BALB/C nude mouse model xenografted with human HepG2 cells assessed as drug tolerance at 1 to 2 uM/kg, iv administered every two days for 21 days along with 250 mW/cm2 light irradiation at 660 nm for 10 mins at 1 hr post-compound administration; format: organism-based; conditions: in vivo, 505.17 h, dose 1-2 µM/Kg, time 505.166 hrs
[24] = Toxicity in BALB/C nude mouse model xenografted with human HepG2 cells assessed as change in liver weight at 1 to 2 uM/kg, iv administered every two days for 21 days along with 250 mW/cm2 light irradiation at 660 nm for 10 mins at 1 hr post-compound administration; format: organism-based; conditions: in vivo, 505.17 h, dose 1-2 µM/Kg, time 505.166 hrs
[25] = Toxicity in BALB/C nude mouse model xenografted with human HepG2 cells assessed as change in spleen weight at 1 to 2 uM/kg, iv administered every two days for 21 days along with 250 mW/cm2 light irradiation at 660 nm for 10 mins at 1 hr post-compound administration; format: organism-based; conditions: in vivo, 505.17 h, dose 1-2 µM/Kg, time 505.166 hrs
[26] = Toxicity in BALB/C nude mouse model xenografted with human HepG2 cells assessed as change in lung weight at 1 to 2 uM/kg, iv administered every two days for 21 days along with 250 mW/cm2 light irradiation at 660 nm for 10 mins at 1 hr post-compound administration; format: organism-based; conditions: in vivo, 505.17 h, dose 1-2 µM/Kg, time 505.166 hrs
[27] = Toxicity in BALB/C nude mouse model xenografted with human HepG2 cells assessed as damage in spleen at 1 to 2 uM/kg, iv administered every two days for 21 days along with 250 mW/cm2 light irradiation at 660 nm for 10 mins at 1 hr post-compound administration by H and E staining based analysis; format: organism-based; conditions: in vivo, 505.17 h, dose 1-2 µM/Kg, time 505.166 hrs
[28] = Toxicity in BALB/C nude mouse model xenografted with human HepG2 cells assessed as damage in lung at 1 to 2 uM/kg, iv administered every two days for 21 days along with 250 mW/cm2 light irradiation at 660 nm for 10 mins at 1 hr post-compound administration by H and E staining based analysis; format: organism-based; conditions: in vivo, 505.17 h, dose 1-2 µM/Kg, time 505.166 hrs
HepG2 [29] = assay: Antitumor activity against human HepG2 cells xenografted in BALB/C nude mouse model assessed as decrease in Ki67 expression at 1 to 2 uM/kg, iv administered every two days for 21 days along with 250 mW/cm2 light irradiation at 660 nm for 10 mins at 1 hr post-compound administration by […] based analysis; format: functional, organism-based; conditions: dose 1-2 µM/Kg, time 505.166 hrs
MCF7 [30] = assay: Antitumor activity against human MCF7 cells xenografted in BALB/C nude mouse model assessed as decrease in tumor growth at 1 to 2 uM/kg, iv administered every two days for 21 days along with 250 mW/cm2 light irradiation at 660 nm for 10 mins at 1 hr post-compound administration; format: functional, organism-based; conditions: dose 1-2 µM/Kg, time 505.166 hrs

C=Cc1c(C)c2cc3nc(c(CC(=O)O)c4[nH]c(cc5nc(cc1[nH]2)C(C)=C5CC)c(C)c4C(=O)NCCCC(=O)N[C@@H](CC(=O)O)C(=O)N[C@@H](Cc1cnc[nH]1)C(=O)N[C@@H](CC(C)C)C(=O)N[C@@H](C)C(=O)N[C@@H](CO)C(=O)N[C@@H](CC(C)C)C(=O)N[C@@H](Cc1c[nH]c2ccccc12)C(=O)N[C@@H](Cc1c[nH]c2ccccc12)C(=O)NCC(=O)N[C@H](C(=O)N[C@@H](CCC(=O)O)C(=O)N[C@@H](CC(C)C)C(=O)O)[C@@H](C)O)[C@@H](CCC(=O)O)[C@@H]3C (HELM PEPTIDE1{[C=Cc1c(C)c2cc3nc(c(CC(=O)O)c4[nH]c(cc5nc(cc1[nH]2)C(C)=C5CC)c(C)c4C(=O)[*:2])[C@@H](CCC(=O)O)[C@@H]3C].[O=C(CCCN[*:1])[*:2]].D.H.L.A.S.L.W.W.G.T.E.L}$$$$V2.0)
IC50 (Huh-7 [1]): > 100 µM | IC50 (MCF7 [2]): > 10 µM | IC50 (HeLa): > 100 µM | IC50 [3]: > 10 µM | half-life (chymotrypsin): 7.6 h | Drug uptake [4]: Not Active | Drug uptake [5]: Dose-Dependent Effect | Drug uptake [6]: Not Active | Drug uptake [7]: Tde | Activity [8]: 0.65 | Activity (HepG2 [9]): inactive | Activity (HepG2 [10]): Active | Activity (HepG2 [11]): 2.7% | Activity (HepG2 [12]): 2% | Activity (HepG2 [13]): 0.2% | Activity (HepG2 [14]): 8.4% | Activity (HepG2 [15]): 9.3% | Activity (HepG2 [16]): 21.8% | Activity (Huh-7 [17]): Active | Drug uptake [18]: Not Active | Drug uptake [19]: Not Active | Drug uptake [20]: Active | Drug uptake [21]: Active | Drug uptake [22]: Active | Activity [23]: Non-Toxic | Activity [24]: Non-Toxic | Activity [25]: Non-Toxic | Activity [26]: Non-Toxic | Activity [27]: Non-Toxic | Activity [28]: Non-Toxic | Activity (HepG2 [29]): Active | Activity (MCF7 [30]): Active

— ChEMBL document CHEMBL5537154, “Smart glypican-3-targeting peptide-chlorin e6 conjugates for targeted photodynamic therapy of hepatocellular carcinoma” (Eur J Med Chem, 2024)
